# Experimental data taken from US20050004216A1, “Treating asthma, chronic obstructive pulmonary disease and/or other respiratory difficulties” (priority 2001, published 2005).
# Experiments:
# [1] = system: asthma, chronic obstructive pulmonary disease and/or other respiratory difficulties; assay: Trial examples: oral capsules in patients with asthma and/or chronic obstructive pulmonary disease; type: in vivo, human; conditions: trials with a variety of patients; dosage forms of cetyl myristate alone
# From the text: Examples of use follows. […] That mixture comprises by weight 95% cetyl myristate and 5% cetyl palmitate by weight manufactured by the process as disclosed in NZ Patent Specification No. 332959. In addition added excipients were present in the admixture and then encapsulated in the non gelatin two part capsule case.
# [2] = laboratory experiments; reference to website www.gcinutrients.com; cited from earlier work
structure (smiles),measurement,setting,value
CCCCCCCCCCCCCCCCOC(=O)CCCCCCCCCCCCC [cetyl myristate],"relief from the symptoms of asthma, chronic obstructive pulmonary disease and/or other respiratory difficulties",[1],favourable responses
same,anti-arthritic activity,[2],negligible
